Data on 17 compounds can be found in patent US10077261B2, “Imidazolin-5-one derivative useful as FASN inhibitors for the treatment of cancer” (Janssen Pharmaceutica NV, priority 2012, dated 2018).

Experiment [1] concerns the target T1, hFASN enzyme (full length) (Homo sapiens, UniProt P49327).
T1 construct: 10 μL hFASN enzyme (full length, 300 ng, purified in house); made in house
The experiment in a line: Fatty Acid Synthase (FASN) inhibition scintillation proximity assay. Format: biochemical. To be noted: for inhibition at 10 µM: read-out: Human FASN % inhibition @ 10 μM, 10 μM test compound; for IC50: read-out: Human FASN pIC50 (converted). The method, boiled down: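 Purified full-length hFASN (300 ng) converts ^3H-acetyl-CoA plus malonyl-CoA to ^3H-palmitate in 100 mM KH2PO4 pH 7.5, 1 mM DTT; compounds tested at 0.01–30 μM. Product captured on streptavidin imaging beads and read by LEADseeker at 610 nm after ≥24 h; 4-parameter logistic fit versus controls.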
(Scintillation proximity formats need no separation of bound from free tracer.)

In experiment [2] the test system is LNCaP-Vancouver prostate cells. The experiment in a line: In vitro LNCaP Vancouver prostate cell proliferation assay in lipid reduced medium. Format: cell-based. To be noted: read-out: pIC50 LNCaP_Vancouver prostate cell (converted).
Experiment [3] has as its system PC-3M-Luc-C6 prostate cells. The experiment in a line: In vitro PC-3M-Luc-C6 prostate cell proliferation assay in lipid reduced medium. The format is cell-based. As to conditions: 96 h, read-out: pIC50 PC-3M-Luc-C6 prostate cell (converted).
Experiment [4] has as its target Fatty Acid Synthase Keto-reductase Domain (FASN KR) (Homo sapiens, UniProt P49327). The experiment in a line: Fatty Acid Synthase keto-reductase domain (FASN KR) inhibition, NADPH oxidation at 340 nm.
Description: After 20 minutes incubation at room temperature the plate was measured again (T2).
The decrease in absorbance was calculated as (Absorbance before incubation T1)−(Absorbance following incubation T2).
A plot of Controlmin versus test compound concentration was fitted to a 4-parameter logistic curve using a non-linear least squares regression method.
Experiment [5] concerns A2780 ovarian cells. The experiment can be described thus: A2780 ovarian cell proliferation assay in lipid reduced medium, with palmitate (MTT). The format is cell-based. As to conditions: Homo sapiens, A2780, 96 h; read-out: pIC50 A2780 Ovarian Cell, With Palmitate (converted). The method, boiled down:
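Seeded cells were switched next day to lipid-reduced serum, exposed to compound and 25 μM palmitate complexed with fatty-acid-free BSA, and incubated 96 h. Proliferation was then determined by MTT absorbance at 544 nm, with a best-fit curve of signal against concentration.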

The test system of experiment [6] is A2780 ovarian cells. The experiment can be described thus: A2780 ovarian cell proliferation assay in lipid reduced medium, without palmitate (MTT). Format: cell-based. As to conditions: Homo sapiens, A2780, 96 h; read-out: pIC50 A2780 Ovarian Cell, Without Palmitate (converted).

T1 sequence (P49327 whole entry): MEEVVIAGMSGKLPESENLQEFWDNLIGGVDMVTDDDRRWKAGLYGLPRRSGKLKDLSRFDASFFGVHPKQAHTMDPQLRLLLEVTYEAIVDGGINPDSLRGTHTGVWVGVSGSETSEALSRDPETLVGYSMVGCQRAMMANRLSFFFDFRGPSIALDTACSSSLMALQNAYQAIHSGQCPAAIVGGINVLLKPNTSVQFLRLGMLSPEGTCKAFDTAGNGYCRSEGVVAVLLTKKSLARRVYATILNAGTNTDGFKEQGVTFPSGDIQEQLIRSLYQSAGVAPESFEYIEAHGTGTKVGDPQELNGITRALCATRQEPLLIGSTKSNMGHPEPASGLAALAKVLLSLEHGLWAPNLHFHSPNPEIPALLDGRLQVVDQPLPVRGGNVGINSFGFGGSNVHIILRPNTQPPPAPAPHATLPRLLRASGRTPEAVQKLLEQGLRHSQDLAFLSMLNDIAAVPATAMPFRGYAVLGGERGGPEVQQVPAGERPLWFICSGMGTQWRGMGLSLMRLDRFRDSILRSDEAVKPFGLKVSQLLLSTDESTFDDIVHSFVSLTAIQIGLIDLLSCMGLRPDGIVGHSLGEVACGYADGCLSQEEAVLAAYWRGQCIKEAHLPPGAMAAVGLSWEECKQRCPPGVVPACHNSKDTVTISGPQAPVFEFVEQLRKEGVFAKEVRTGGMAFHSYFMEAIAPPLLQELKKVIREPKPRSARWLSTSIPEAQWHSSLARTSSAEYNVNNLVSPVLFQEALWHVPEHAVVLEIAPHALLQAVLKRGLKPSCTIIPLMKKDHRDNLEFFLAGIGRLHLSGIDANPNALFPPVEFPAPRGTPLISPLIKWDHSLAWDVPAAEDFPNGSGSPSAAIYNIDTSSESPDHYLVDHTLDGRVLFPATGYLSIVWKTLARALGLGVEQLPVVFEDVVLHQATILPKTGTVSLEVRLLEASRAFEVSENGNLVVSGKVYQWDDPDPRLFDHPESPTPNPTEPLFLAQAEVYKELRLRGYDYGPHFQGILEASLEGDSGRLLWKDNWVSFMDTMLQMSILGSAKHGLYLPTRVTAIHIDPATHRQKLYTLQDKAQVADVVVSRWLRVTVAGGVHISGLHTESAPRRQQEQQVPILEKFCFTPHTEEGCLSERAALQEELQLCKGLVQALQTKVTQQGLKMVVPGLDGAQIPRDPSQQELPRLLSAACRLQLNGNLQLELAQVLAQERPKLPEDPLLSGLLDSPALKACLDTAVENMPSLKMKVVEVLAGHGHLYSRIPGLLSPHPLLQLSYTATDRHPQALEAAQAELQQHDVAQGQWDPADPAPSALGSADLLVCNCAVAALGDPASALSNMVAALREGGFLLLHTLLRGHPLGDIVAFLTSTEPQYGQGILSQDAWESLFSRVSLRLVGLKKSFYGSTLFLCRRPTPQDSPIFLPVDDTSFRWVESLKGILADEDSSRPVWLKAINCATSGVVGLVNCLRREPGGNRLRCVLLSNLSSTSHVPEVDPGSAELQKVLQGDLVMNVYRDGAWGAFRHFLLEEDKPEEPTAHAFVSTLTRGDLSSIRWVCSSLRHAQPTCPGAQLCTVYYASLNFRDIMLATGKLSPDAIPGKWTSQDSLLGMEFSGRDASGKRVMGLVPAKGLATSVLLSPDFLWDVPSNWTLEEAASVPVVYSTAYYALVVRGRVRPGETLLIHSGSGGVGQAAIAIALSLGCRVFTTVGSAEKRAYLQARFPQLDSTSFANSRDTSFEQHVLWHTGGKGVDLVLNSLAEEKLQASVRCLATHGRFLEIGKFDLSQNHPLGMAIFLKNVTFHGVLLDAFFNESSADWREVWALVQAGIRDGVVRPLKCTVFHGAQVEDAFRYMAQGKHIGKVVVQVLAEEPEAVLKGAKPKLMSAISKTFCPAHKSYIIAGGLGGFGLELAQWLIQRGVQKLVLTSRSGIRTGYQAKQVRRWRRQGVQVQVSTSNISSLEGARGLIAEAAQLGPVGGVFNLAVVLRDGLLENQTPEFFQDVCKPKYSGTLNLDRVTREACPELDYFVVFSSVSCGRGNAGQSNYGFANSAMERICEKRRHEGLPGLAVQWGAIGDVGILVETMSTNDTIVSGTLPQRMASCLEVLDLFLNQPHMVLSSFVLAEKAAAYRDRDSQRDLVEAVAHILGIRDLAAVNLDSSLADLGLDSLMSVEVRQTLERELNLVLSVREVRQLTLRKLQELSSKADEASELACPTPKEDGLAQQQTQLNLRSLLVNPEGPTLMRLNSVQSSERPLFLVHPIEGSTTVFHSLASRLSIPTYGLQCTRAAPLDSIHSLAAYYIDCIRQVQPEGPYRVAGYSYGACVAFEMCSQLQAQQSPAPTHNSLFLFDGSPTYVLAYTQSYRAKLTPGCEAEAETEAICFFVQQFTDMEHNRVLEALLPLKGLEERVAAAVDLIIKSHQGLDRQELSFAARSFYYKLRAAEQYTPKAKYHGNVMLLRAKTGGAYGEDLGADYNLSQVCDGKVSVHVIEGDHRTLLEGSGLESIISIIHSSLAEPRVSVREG
Sequence of Fatty Acid Synthase Keto-reductase Domain (FASN KR) (P49327 whole entry, the tested form may be a part): as the sequence (P49327 whole entry) above

A word on the inhibition: it is the relative decrease from the control value, in per cent. For `O=C(C1CC1)N1CC[C@@H](CN2C(=O)C3(CC3)N=C2c2ccc(-c3cnc4ccccc4c3)cc2F)C1` [compound 257, (R)-6-((1-(cyclopropanecarbonyl)pyrrolidin-3-yl)methyl)-5-(2-fluoro-4-(quinolin-3-yl)phenyl)-4,6-diazaspiro[2.4]hept-4-en-7-one], the inhibition at 10 µM in experiment [1] is 99%. Moreover, the IC50 is 0.049 µM in experiment [1], 0.263 µM in experiment [2], 0.0708 µM in experiment [3] and 0.2 µM in experiment [4].
On to `O=C(C1CC1)N1CC[C@@H](CN2C(=O)C3(CC3)N=C2c2ccc(-c3ccc4cncnc4c3)cc2)C1` [compound 312, (R)-6-((1-(cyclopropanecarbonyl)pyrrolidin-3-yl)methyl)-5-(4-(quinazolin-7-yl)phenyl)-4,6-diazaspiro[2.4]hept-4-en-7-one], for which the inhibition at 10 µM in experiment [1] came to 101%. Moreover, the IC50 in experiment [1] is 0.0759 µM; in experiment [2] it was 0.123 µM; in experiment [3], around 0.0525 µM; in experiment [4], 0.0759 µM.
On to `O=C(C1CC1)N1CC(CN2C(=O)C3(CC3)N=C2c2ccc(-c3ccc4cccnc4c3F)cc2)C1` [compound 315, 6-((1-(cyclopropanecarbonyl)azetidin-3-yl)methyl)-5-(4-(8-fluoroquinolin-7-yl)phenyl)-4,6-diazaspiro[2.4]hept-4-en-7-one], for which the inhibition at 10 µM in experiment [1] is 98%. Further, the IC50 was 0.0661 µM in experiment [1], 0.631 µM in experiment [2], 0.123 µM in experiment [3] and 0.251 µM in experiment [4].
Consider `Cn1ccc2cc(-c3ccc(C4=NC5(CC5)C(=O)N4CC4CN(C(=O)C5CC5)C4)cc3)ccc21` [compound 344, 6-((1-(cyclopropanecarbonyl)azetidin-3-yl)methyl)-5-(4-(1-methyl-1H-indol-5-yl)phenyl)-4,6-diazaspiro[2.4]hept-4-en-7-one], for which the inhibition at 10 µM in experiment [1] amounted to 99%. For the same compound, the IC50 was 0.0257 µM in experiment [1], 0.141 µM in experiment [2], around 0.0324 µM in experiment [3] and 0.0457 µM in experiment [4].
Take `Cc1cc(-c2ccc3c(cnn3C)c2)ccc1C1=NC2(CC2)C(=O)N1CC1CN(C(=O)CC2CC2)C1` [compound 499, 6-{[1-(Cyclopropylacetyl)azetidin-3-yl]methyl}-5-[2-methyl-4-(1-methyl-1H-indazol-5-yl)phenyl]-4,6-diazaspiro[2.4]hept-4-en-7-one]: the inhibition at 10 µM in experiment [1] is 96%. Moreover, the IC50 was 0.245 µM in experiment [1], 4.27 µM in experiment [2], 0.457 µM in experiment [3] and 0.479 µM in experiment [4].
As to `O=C(C1CC1)N1CC(CN2C(=O)C3(CC3)N=C2c2ccc(-c3ccc4cnc(F)cc4c3)cc2)C1` [compound 502, 6-{[1-(Cyclopropylcarbonyl)azetidin-3-yl]methyl}-5-[4-(3-fluoroisoquinolin-6-yl)phenyl]-4,6-diazaspiro[2.4]hept-4-en-7-one], the inhibition at 10 µM in experiment [1] worked out at 94%. Further, the IC50 in experiment [1] was 0.355 µM; in experiment [2], 4.17 µM; in experiment [3], 1.17 µM; in experiment [4] it was 2.14 µM.
Turning to `Cn1cc2cc(-c3ccc(C4=NC5(CC5)C(=O)N4CC4CN(C(=O)C5CC5)C4)cc3)ccc2n1` [compound 507, 6-{[1-(Cyclopropylcarbonyl)azetidin-3-yl]methyl}-5-[4-(2-methyl-2H-indazol-5-yl)phenyl]-4,6-diazaspiro[2.4]hept-4-en-7-one], the inhibition at 10 µM in experiment [1] is 89%. The IC50 in experiment [1] is 0.417 µM; in experiment [2] it was 6.03 µM; in experiment [3], around 1.17 µM; in experiment [4] it was 3.63 µM.
For the compound `O=C(C1CC1)N1CC(CN2C(=O)C3(CC3)N=C2c2ccc(-c3ccc4cccnc4n3)cc2)C1` [compound 511, 6-{[1-(Cyclopropylcarbonyl)azetidin-3-yl]methyl}-5-[4-(1,8-naphthyridin-2-yl)phenyl]-4,6-diazaspiro[2.4]hept-4-en-7-one], the inhibition at 10 µM in experiment [1] came to 94%. Besides, the IC50 is 0.355 µM in experiment [1], 4.68 µM in experiment [2], around 0.891 µM in experiment [3] and 3.16 µM in experiment [4].
Taken in the same sequence, the figures for `Cn1ncc2c(-c3ccc(C4=NC5(CC5)C(=O)N4CC4CN(C(=O)C5CC5)C4)cc3)cccc21` [compound 515, 6-{[1-(Cyclopropylcarbonyl)azetidin-3-yl]methyl}-5-[4-(1-methyl-1H-indazol-4-yl)phenyl]-4,6-diazaspiro[2.4]hept-4-en-7-one] were 96%, 0.182 µM, 2.14 µM, 0.562 µM and 0.437 µM.
Take `Cn1cc(-c2ccc(-c3ccc(C4=NC5(CC5)C(=O)N4CC4CN(C(=O)C5CC5)C4)cc3)cn2)cn1` [compound 517, 6-{[1-(Cyclopropylcarbonyl)azetidin-3-yl]methyl}-5-{4-[6-(1-methyl-1H-pyrazol-4-yl)pyridin-3-yl]phenyl}-4,6-diazaspiro[2.4]hept-4-en-7-one]: the inhibition at 10 µM in experiment [1] was 88%. For the same compound, the IC50 in experiment [1] was 0.646 µM; in experiment [2], around 5.25 µM; in experiment [3] it was 1.26 µM; in experiment [4], 1.51 µM.
Take `O=C(C1CC1)N1CC(CN2C(=O)C3(CC3)N=C2c2ccc(-c3cnc4ccccc4c3)cc2)C1` [compound 519, 6-{[1-(Cyclopropylcarbonyl)azetidin-3-yl]methyl}-5-(4-quinolin-3-ylphenyl)-4,6-diazaspiro[2.4]hept-4-en-7-one]: the inhibition at 10 µM in experiment [1] is 96%. For the same compound, the IC50 is 0.158 µM in experiment [1], 2.69 µM in experiment [2], 0.55 µM in experiment [3] and 0.389 µM in experiment [4].
Taken in the same sequence, the figures for `Cn1cc(-c2ccc(-c3ccc(C4=NC5(CCOCC5)C(=O)N4C[C@@H]4CCN(C(=O)C5CC5)C4)cc3)cc2)cn1` [compound 655, 3-{[(3R)-1-(cyclopropylcarbonyl)pyrrolidin-3-yl]methyl}-2-[4′-(1-methyl-1H-pyrazol-4-yl)biphenyl-4-yl]-8-oxa-1,3-diazaspiro[4.5]dec-1-en-4-one] were 99%, 0.178 µM, around 2.51 µM, around 0.234 µM and 0.407 µM.
As to `Cn1cc(-c2ccc(-c3ccc(C4=NC5(CCOCC5)C(=O)N4C[C@@H]4CCN(C(=O)[C@H]5CCCO5)C4)cc3)cc2)cn1` [compound 657, 2-[4′-(1-Methyl-1H-pyrazol-4-yl)biphenyl-4-yl]-3-({(3R)-1-[(2R)-tetrahydro-furan-2-ylcarbonyl]pyrrolidin-3-yl}methyl)-8-oxa-1,3-diazaspiro[4.5]dec-1-en-4-one], the inhibition at 10 µM in experiment [1] came out at 97%. For the same compound, the IC50 was 0.309 µM in experiment [1], 3.8 µM in experiment [2], 0.589 µM in experiment [3] and 0.661 µM in experiment [4].
`O=C([C@H]1CCCO1)N1CC[C@@H](CN2C(=O)C3(CCOCC3)N=C2c2ccc(-c3ccc4cccnc4c3)cc2)C1` [compound 663, 2-(4-Quinolin-7-ylphenyl)-3-({(3R)-1-[(2R)-tetrahydro-furan-2-ylcarbonyl]pyrrolidin-3-yl}methyl)-8-oxa-1,3-diazaspiro[4.5]dec-1-en-4-one]: in experiment [1], the inhibition at 10 µM was found to be 100%. Also, the IC50 was 0.0646 µM in experiment [1], 0.55 µM in experiment [2], 0.117 µM in experiment [3] and 0.275 µM in experiment [4].
For the compound `Cn1ncc2cc(-c3ccc(C4=NC5(CCOCC5)C(=O)N4C[C@@H]4CCN(C(=O)[C@H]5CCCO5)C4)cc3)ccc21` [compound 674, 2-[4-(1-Methyl-1H-indazol-5-yl)phenyl]-3-({(3R)-1-[(2R)-tetrahydro-furan-2-ylcarbonyl]pyrrolidin-3-yl}methyl)-8-oxa-1,3-diazaspiro[4.5]dec-1-en-4-one], the inhibition at 10 µM in experiment [1] worked out at 94%. In addition, the IC50 was 0.457 µM in experiment [1], around 4.9 µM in experiment [2], around 0.813 µM in experiment [3] and 3.16 µM in experiment [4].
For `Cn1cc(-c2ccc(-c3ccc(C4=NC5(CCOC5)C(=O)N4C[C@@H]4CCN(C(=O)C5CC5)C4)cc3)cc2)cn1` (stereo partly drawn) [compound 676, 3-{[(3R)-1-(Cyclopropylcarbonyl)pyrrolidin-3-yl]methyl}-2-[4′-(1-methyl-1H-pyrazol-4-yl)biphenyl-4-yl]-7-oxa-1,3-diazaspiro[4.4]non-1-en-4-one], in experiment [1], the inhibition at 10 µM came to 98%. Besides, the IC50 in experiment [1] is 0.269 µM; in experiment [2] it was 1.78 µM; in experiment [3], 0.501 µM; in experiment [4] it was 0.603 µM.
Regarding `Cc1cc(-c2ccc3cc[nH]c3c2)ccc1C1=NC2(CCCC2)C(=O)N1C[C@@H]1CCN(C(=O)C2CC2)C1` [compound 873, (R)-2-(4-(1H-indol-6-yl)-2-methylphenyl)-3-((1-(cyclopropanecarbonyl)pyrrolidin-3-yl)methyl)-1,3-diazaspiro[4.4]non-1-en-4-one], the inhibition at 10 µM in experiment [1] is 109%. Also, the IC50 in experiment [5] was above 10 µM; in experiment [6], 0.0631 µM; in experiment [2], 0.263 µM; in experiment [3], 0.0347 µM.
